These results are taken from PMC10215302 (Antibiotics, 2023).

What all share (assay): microbe, parasite or virus in culture
Common to all, as to details: Staphylococcus aureus

Assay [1] has as its system S. aureus SA0077.
In assay [2] the test system is S. aureus SA0085.
In assay [3] the test system is S. aureus SA0422.
Assay [4] deals with S. aureus SA0736.
Assay [5] relates to S. aureus ATCC 29213.
[6] abbreviates: SA0077, read-out: MIC values, Table S1: SA0077 Abf (passages on antibiotic-free media).
Setting [7] is: SA0077, read-out: MIC values, Table S1: SA0077 VAN (derivative after 40 passages on vancomycin).
[8] abbreviates: SA0085, read-out: MIC values, Table S1: SA0085 VAN (derivative after 40 passages on vancomycin).
[9] abbreviates: SA0422, read-out: MIC values, Table S1: SA0422 DAP (derivative after 40 passages on daptomycin).
Setting [10] is: SA0422, read-out: MIC values, Table S1: SA0422 VAN (derivative after 40 passages on vancomycin).
[11] abbreviates: SA0736, read-out: MIC values, Table S1: SA0736 DAP-W (40 passages on daptomycin, white colonies).
The mark [12] stands for this setting: SA0736, read-out: MIC values, Table S1: SA0736 VAN (derivative after 40 passages on vancomycin).
[13] abbreviates: ATCC29213, read-out: MIC values.
Setting [14] is: ATCC29213, read-out: MIC values, Table S1: ATCC 29213 DAP (derivative after 40 passages on daptomycin).
The mark [15] stands for this setting: ATCC29213, read-out: MIC values, Table S1: ATCC 29213 VAN (derivative after 40 passages on vancomycin).
Where [16] appears, read: SA0077, read-out: MIC values, Table S1: SA0077 DAP (derivative after 40 passages on daptomycin).

In brackets after ≈: the same amount, converted by molar mass. Read-outs that look alike come from different tables or passages of the source.

As for `O=C(O)c1cn(C2CC2)c2cc(N3CCNCC3)c(F)cc2c1=O` [Ciprofloxacin], the MIC in assay [1] (SA0077, read-out: MIC values) was found to be 16 µg/mL (≈ 48.3 µM); in assay [1] (setting [6]), 32 µg/mL (≈ 96.6 µM); in assay [1] (setting [7]) it was 64 µg/mL (≈ 193 µM); in assay [2] (SA0085, read-out: MIC values) it was 256 µg/mL (≈ 773 µM); in assay [2] (setting [8]), 32 µg/mL (≈ 96.6 µM); in assay [3] (SA0422, read-out: MIC values), 128 µg/mL (≈ 386 µM). Besides, the MIC was found to be 32 µg/mL (≈ 96.6 µM) in assay [3] (setting [9]); 64 µg/mL (≈ 193 µM) in assay [3] (setting [10]); 128 µg/mL (≈ 386 µM) in assay [4] (SA0736, read-out: MIC values); 64 µg/mL (≈ 193 µM) in assay [4] (setting [11]); 32 µg/mL (≈ 96.6 µM) in assay [4] (SA0736, read-out: MIC values, Table S1: SA0736 DAP-Y (40 passages on daptomycin, yellow colonies)); 16 µg/mL (≈ 48.3 µM) in assay [4] (setting [12]). The MIC in assay [5] (setting [13]) is 0.25 µg/mL (≈ 0.754 µM).

As to `CCC[C@@H]1C[C@@H](C(=O)N[C@@H]([C@H]2O[C@H](SC)[C@H](O)[C@@H](O)[C@H]2O)[C@H](C)Cl)N(C)C1` [Clindamycin], the MIC was greater than 64 µg/mL in assay [1] (SA0077, read-out: MIC values); greater than 64 µg/mL in assay [2] (SA0085, read-out: MIC values); 0.06 µg/mL (≈ 0.141 µM) in assay [3] (SA0422, read-out: MIC values); 0.06 µg/mL (≈ 0.141 µM) in assay [4] (SA0736, read-out: MIC values); 0.06 µg/mL (≈ 0.141 µM) in assay [5] (setting [13]).

Turning to `CC[C@H]1OC(=O)[C@H](C)[C@@H](O[C@H]2C[C@@](C)(OC)[C@@H](O)[C@H](C)O2)[C@H](C)[C@@H](O[C@@H]2O[C@H](C)C[C@H](N(C)C)[C@H]2O)[C@](C)(O)C[C@@H](C)C(=O)[C@H](C)[C@@H](O)[C@]1(C)O` [Erythromycin], the MIC is greater than 128 µg/mL in assay [1] (SA0077, read-out: MIC values); greater than 128 µg/mL in assay [2] (SA0085, read-out: MIC values); 0.125 µg/mL (≈ 0.17 µM) in assay [3] (SA0422, read-out: MIC values); 0.5 µg/mL (≈ 0.681 µM) in assay [3] (setting [10]); 0.125 µg/mL (≈ 0.17 µM) in assay [4] (SA0736, read-out: MIC values); 0.5 µg/mL (≈ 0.681 µM) in assay [4] (setting [12]). In addition, the MIC is 0.25 µg/mL (≈ 0.341 µM) in assay [5] (setting [13]), 0.125 µg/mL (≈ 0.17 µM) in assay [5] (setting [14]) and 0.5 µg/mL (≈ 0.681 µM) in assay [5] (setting [15]).

Take `CC(=O)O[C@H]1C[C@@]2(C)[C@@H](C[C@@H](O)[C@H]3[C@@]4(C)CC[C@@H](O)[C@@H](C)[C@@H]4CC[C@@]32C)/C1=C(\CCC=C(C)C)C(=O)O` [Fusidic acid]: the MIC in assay [1] (SA0077, read-out: MIC values) stood at 0.06 µg/mL (≈ 0.116 µM); in assay [2] (SA0085, read-out: MIC values), 0.125 µg/mL (≈ 0.242 µM); in assay [3] (SA0422, read-out: MIC values), 0.125 µg/mL (≈ 0.242 µM); in assay [3] (setting [9]), 0.06 µg/mL (≈ 0.116 µM); in assay [3] (setting [10]), 0.06 µg/mL (≈ 0.116 µM); in assay [4] (SA0736, read-out: MIC values), 0.06 µg/mL (≈ 0.116 µM). In addition, the MIC in assay [4] (setting [12]) amounted to 0.125 µg/mL (≈ 0.242 µM); in assay [5] (setting [13]), 0.25 µg/mL (≈ 0.484 µM); in assay [5] (setting [14]), 0.125 µg/mL (≈ 0.242 µM).

On to `CNC(C)C1CCC(N)C(OC2C(N)CC(N)C(OC3OCC(C)(O)C(NC)C3O)C2O)O1` (stereo not drawn) [Gentamicin], for which the MIC in assay [1] (SA0077, read-out: MIC values) is greater than 128 µg/mL; in assay [2] (SA0085, read-out: MIC values) it was greater than 128 µg/mL; in assay [3] (SA0422, read-out: MIC values) it was greater than 128 µg/mL; in assay [4] (SA0736, read-out: MIC values), greater than 128 µg/mL; in assay [5] (setting [13]), 1 µg/mL (≈ 2.09 µM); in assay [5] (setting [14]), 0.25 µg/mL (≈ 0.523 µM).

With `CC(=O)NC[C@H]1CN(c2ccc(N3CCOCC3)c(F)c2)C(=O)O1` [Linezolid], the MIC in assay [1] (SA0077, read-out: MIC values) stood at 1 µg/mL (≈ 2.96 µM); in assay [2] (SA0085, read-out: MIC values) it was 4 µg/mL (≈ 11.9 µM); in assay [2] (setting [8]), 1 µg/mL (≈ 2.96 µM); in assay [3] (SA0422, read-out: MIC values) it was 2 µg/mL (≈ 5.93 µM); in assay [3] (setting [9]) it was 1 µg/mL (≈ 2.96 µM); in assay [4] (SA0736, read-out: MIC values), 1 µg/mL (≈ 2.96 µM). For the same compound, the MIC in assay [4] (setting [12]) is 2 µg/mL (≈ 5.93 µM); in assay [5] (setting [13]), 2 µg/mL (≈ 5.93 µM); in assay [5] (setting [14]), 1 µg/mL (≈ 2.96 µM).

For the compound `COc1c(N2C[C@@H]3CCCN[C@@H]3C2)c(F)cc2c(=O)c(C(=O)O)cn(C3CC3)c12` [Moxifloxacin], the MIC in assay [1] (SA0077, read-out: MIC values) came out at 2 µg/mL (≈ 4.98 µM); in assay [1] (setting [7]), 4 µg/mL (≈ 9.96 µM); in assay [2] (SA0085, read-out: MIC values), 8 µg/mL (≈ 19.9 µM); in assay [3] (SA0422, read-out: MIC values), 2 µg/mL (≈ 4.98 µM); in assay [4] (SA0736, read-out: MIC values) it was 2 µg/mL (≈ 4.98 µM); in assay [4] (setting [11]) it was 4 µg/mL (≈ 9.96 µM). The MIC in assay [4] (setting [12]) was 4 µg/mL (≈ 9.96 µM); in assay [5] (setting [13]) it was 0.125 µg/mL (≈ 0.311 µM).

Regarding `C/C(=C\C(=O)OCCCCCCCCC(=O)O)C[C@@H]1OC[C@H](C[C@@H]2O[C@H]2[C@@H](C)[C@H](C)O)[C@@H](O)[C@H]1O` [Mupirocin], the MIC worked out at 0.5 µg/mL (≈ 0.999 µM) in assay [1] (SA0077, read-out: MIC values); 1 µg/mL (≈ 2 µM) in assay [1] (setting [6]); 1 µg/mL (≈ 2 µM) in assay [1] (setting [7]); 1 µg/mL (≈ 2 µM) in assay [2] (SA0085, read-out: MIC values); 1 µg/mL (≈ 2 µM) in assay [3] (SA0422, read-out: MIC values); 1 µg/mL (≈ 2 µM) in assay [4] (SA0736, read-out: MIC values). Also, the MIC in assay [4] (setting [11]) came to 0.5 µg/mL (≈ 0.999 µM); in assay [5] (setting [13]), 1 µg/mL (≈ 2 µM).

`CO[C@H]1/C=C/O[C@@]2(C)Oc3c(C)c(O)c4c(O)c(c(/C=N/N5CCN(C)CC5)c(O)c4c3C2=O)NC(=O)/C(C)=C\C=C\[C@H](C)[C@H](O)[C@@H](C)[C@@H](O)[C@@H](C)[C@H](OC(C)=O)[C@@H]1C` [Rifampicin]: the MIC in assay [1] (SA0077, read-out: MIC values) was 0.004 µg/mL (≈ 0.00486 µM); in assay [2] (SA0085, read-out: MIC values) it was greater than 4 µg/mL; in assay [3] (SA0422, read-out: MIC values) it was 0.004 µg/mL (≈ 0.00486 µM); in assay [4] (SA0736, read-out: MIC values) it was 0.004 µg/mL (≈ 0.00486 µM); in assay [4] (setting [12]) it was 0.016 µg/mL (≈ 0.0194 µM); in assay [5] (setting [13]), 0.004 µg/mL (≈ 0.00486 µM).

Regarding `Cn1nnc(-c2ccc(-c3ccc(N4C[C@H](CO)OC4=O)cc3F)cn2)n1` [Tedizolid], the MIC came to 0.25 µg/mL (≈ 0.675 µM) in assay [1] (SA0077, read-out: MIC values); 0.125 µg/mL (≈ 0.338 µM) in assay [1] (setting [6]); 0.125 µg/mL (≈ 0.338 µM) in assay [1] (setting [16]); 0.125 µg/mL (≈ 0.338 µM) in assay [1] (setting [7]); 0.5 µg/mL (≈ 1.35 µM) in assay [2] (SA0085, read-out: MIC values); 0.06 µg/mL (≈ 0.162 µM) in assay [2] (setting [8]). For the same compound, the MIC came out at 0.25 µg/mL (≈ 0.675 µM) in assay [3] (SA0422, read-out: MIC values); 0.125 µg/mL (≈ 0.338 µM) in assay [3] (setting [9]); 0.125 µg/mL (≈ 0.338 µM) in assay [4] (SA0736, read-out: MIC values); 0.25 µg/mL (≈ 0.675 µM) in assay [5] (setting [13]).

On to `CN(C)[C@@H]1C(O)=C(C(N)=O)C(=O)[C@@]2(O)C(O)=C3C(=O)c4c(O)cccc4[C@@](C)(O)[C@H]3C[C@@H]12` [Tetracycline], for which the MIC came to 0.06 µg/mL (≈ 0.135 µM) in assay [1] (SA0077, read-out: MIC values); 32 µg/mL (≈ 72 µM) in assay [2] (SA0085, read-out: MIC values); 16 µg/mL (≈ 36 µM) in assay [2] (SA0085, read-out: MIC values, Table S1: SA0085 DAP (derivative after 40 passages on daptomycin)); 0.125 µg/mL (≈ 0.281 µM) in assay [2] (setting [8]); 0.06 µg/mL (≈ 0.135 µM) in assay [3] (SA0422, read-out: MIC values); 0.125 µg/mL (≈ 0.281 µM) in assay [3] (setting [10]). The MIC in assay [4] (SA0736, read-out: MIC values) came out at 16 µg/mL (≈ 36 µM); in assay [5] (setting [13]), 0.125 µg/mL (≈ 0.281 µM); in assay [5] (setting [14]) it was 0.06 µg/mL (≈ 0.135 µM); in assay [5] (setting [15]), 0.5 µg/mL (≈ 1.13 µM).

In the case of `CN(C)c1cc(NC(=O)CNC(C)(C)C)c(O)c2c1C[C@H]1C[C@H]3[C@H](N(C)C)C(O)=C(C(N)=O)C(=O)[C@@]3(O)C(O)=C1C2=O` [Tigecycline], the MIC in assay [1] (SA0077, read-out: MIC values) amounted to 0.25 µg/mL (≈ 0.427 µM); in assay [1] (setting [6]), 0.06 µg/mL (≈ 0.102 µM); in assay [1] (setting [16]), 0.06 µg/mL (≈ 0.102 µM); in assay [1] (setting [7]), 0.06 µg/mL (≈ 0.102 µM); in assay [2] (SA0085, read-out: MIC values), 0.125 µg/mL (≈ 0.213 µM); in assay [3] (SA0422, read-out: MIC values), 0.125 µg/mL (≈ 0.213 µM). Moreover, the MIC came out at 0.06 µg/mL (≈ 0.102 µM) in assay [3] (setting [9]); 0.06 µg/mL (≈ 0.102 µM) in assay [4] (SA0736, read-out: MIC values); 0.125 µg/mL (≈ 0.213 µM) in assay [4] (setting [12]); 0.03 µg/mL (≈ 0.0512 µM) in assay [5] (setting [13]); 0.016 µg/mL (≈ 0.0273 µM) in assay [5] (setting [14]); 0.06 µg/mL (≈ 0.102 µM) in assay [5] (setting [15]).
